Experimental data taken from patent publication US20170014352A1, “WATER-DISPERSIBLE AMORPHOUS PARTICLES AND METHOD FOR PREPARING SAME” (The University of Tokyo, priority 2014, published 2017).
Where a name gives a salt, the structure may show the parent alone. Read-outs that look alike come from different tables or passages of the source.

Assays:
[1] = particle size (Z-average, hydrodynamic diameter) and PDI by dynamic light scattering (DLS); type: physicochemical
Excerpt: The “particle size” herein means an average particle size, and is defined as a particle size (Z-average) measured by use of a dynamic light scattering (Dynamic Light Scattering: DLS) method. The particle size thus measured is also referred to as “hydrodynamic diameter”.
The “polydispersity index (Polydispersity index: PDI)” herein is an index for evaluating the width of a particle size distribution, and is in the range from 0 to 1. A value of 0 represents an ideal suspension without any size distribution. A distribution having a PDI value of 0.1 or less is referred to as “monodispersity”, and on the other hand, a dispersion having a value between 0.1 and 0.3 is considered to have a narrow size distribution. A dispersion having a PDI of more than 0.5 is considered to be polydisperse. The polydispersity index is calculated from the value obtained by use of a dynamic light scattering (Dynamic Light Scattering: DLS) method.
Measurement by a DLS method was performed by use of a laser light scattering apparatus (Zetasizer Nano ZS manufactured by Malvern instruments Ltd.). A scanning electron microscope (SEM) image was obtained by use of Magellan 4001 manufactured by FEI Company. Powder X-ray diffraction was performed by use of SmartLab manufactured by Rigaku Corporation. FDU-1200 manufactured by EYELA was used for a freeze-dryer.

[2] = cited from earlier work; for logP: measured value described in the literature; for log P: starting organic compound, Examples 9 and 10
[3] = at 25° C.; cited from earlier work
[4] = Example 7: water injected into THF solution of compound (concentration 100 W), water dispersion
[5] = Example 6: 100 μM THF solution of compound injected into water, THF distilled off, water dispersion

For `CCCc1nc2c(C)cc(-c3nc4ccccc4n3C)cc2n1Cc1ccc(-c2ccccc2C(=O)O)cc1` [Telmisartan, telmisartan, reference compound], which PDI [1, 4] is on record?
Its PDI is 0.34.

What about the “Particle size (nm)” value [1, 4] of the same compound?
Its value is 10 nm.

What about the logP ([2]; Table 2) of the same compound?
The logP was 6.48.

Which PDI [1, 5] does the source give for `CC(C)CCC[C@@H](C)[C@H]1CC[C@H]2[C@@H]3CC=C4C[C@@H](O)CC[C@]4(C)[C@H]3CC[C@]12C` [Cholesterol, cholesterol] here?
The PDI was 0.27.

And the “Particle size (nm)” value [1, 5]?
Its value is 228 nm.

And the PDI [1, 4]?
Its PDI is 0.02.

What about the “Particle size (nm)” value [1, 4] of the same compound?
Its value is 165 nm.

What about the logP ([2]; Table 1) of the same compound?
Its logP is 9.61.

And the logP ([2]; Table 2)?
Its logP is 9.61.

Which results are given for `Cc1c(OCC(F)(F)F)ccnc1C[S+]([O-])c1nc2ccccc2[nH]1` (stereo not shown) [Lansoprazole]?
log P [2]: 2.58; solubility in water [3]: less than 0.1 mg/mL

Which results are given for `COc1ccc(CC(C)NCC(O)c2ccc(O)c(NC=O)c2)cc1` (stereo not shown) [Formoterol fumarate hydrate]?
log P [2]: 2.0; solubility in water [3]: 170 µg/mL

For `c1ccc2cc3cc4cc5ccccc5cc4cc3cc2c1` [Pentacene, pentacene], which PDI [1, 4] is on record?
Its PDI is 0.02.

What about the “Particle size (nm)” value [1, 4] of the same compound?
Its value is 116 nm.

For `c1cc2ccc3cccc4ccc(c1)c2c34` [Pyrene, pyrene], which PDI [1, 4] is on record?
The PDI was 0.13.

What about the “Particle size (nm)” value [1, 4] of the same compound?
The value was 120 nm.

With pyrenecarboxylic acid as the compound, how does the PDI [1] read?
Its PDI is 0.14.

What about the “Particle size (nm)” value [1] of the same compound?
The value was 76 nm.
